The text below walks through data of patent publication US11124554B2, “Modified ligand-gated ion channels and methods of use” (Howard Hughes Medical Institute, priority 2016, dated 2021).

One assay deals with T1, α7^Q79G-GlyR^A298G (Homo sapiens, UniProt P36544, A298G/Q79G).
T1 construct: expressed in transfected cells; host or cells: HEK cells
Briefly: Agonist potency (EC50), HEK cells expressing chimeric channel. Format: cell-based.

The target in another assay is T2, α7-5HT3 (Homo sapiens, UniProt P36544, M226I/T225I).
T2 construct: expressed in transfected cells; host or cells: HEK cells
T2 sequence (P36544 with tags, fused parts or gaps T225I/M226I): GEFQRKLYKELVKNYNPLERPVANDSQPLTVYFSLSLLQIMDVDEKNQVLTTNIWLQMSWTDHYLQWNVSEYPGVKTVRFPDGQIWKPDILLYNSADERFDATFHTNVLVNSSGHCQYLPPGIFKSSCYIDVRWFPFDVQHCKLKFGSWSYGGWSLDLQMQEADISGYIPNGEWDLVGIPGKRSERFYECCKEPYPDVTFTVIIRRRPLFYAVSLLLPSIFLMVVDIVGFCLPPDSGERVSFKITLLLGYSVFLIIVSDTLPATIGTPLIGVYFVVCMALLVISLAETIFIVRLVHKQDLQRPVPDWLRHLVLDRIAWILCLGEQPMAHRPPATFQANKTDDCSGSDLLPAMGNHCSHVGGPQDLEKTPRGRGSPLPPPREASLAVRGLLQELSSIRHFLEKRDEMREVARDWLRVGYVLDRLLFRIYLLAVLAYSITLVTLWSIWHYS
Described as above. Format: cell-based, human α7 nAChR LBD, murine 5HT3 IPD.

A further assay has as its target T3, α7-GlyR (Homo sapiens, UniProt P36544).
T3 construct: expressed in transfected cells; host or cells: HEK cells
Described as above. Format: cell-based.

For a further assay, the system named is α7^L131G-5HT3 HC. Briefly: Agonist potency at chimeric channel (Table 9). Type of assay: cell-based, human. Conditions: α7^L131G-5HT3 HC; reduction.
A further assay concerns the target T4, α7^Y115F,G175K-GlyR (Homo sapiens, UniProt P36544, G175K/Y115F).
T4 construct: expressed in transfected cells
Briefly: Agonist potency at chimeric channel. Format: cell-based. Conditions: Table 6; read-out: Potency, a7GlyR Y115F G175K.

A further assay addresses T5, α7^Q79G,Y115F,G175K-GlyR (Homo sapiens, UniProt P36544, G175K/Q79G/Y115F).
T5 construct: expressed in transfected cells
Briefly: Agonist potency at chimeric channel. Type of assay: cell-based. Conditions: Table 6; read-out: Potency, a7Gly Q79G G175K Y115F.

Another assay addresses T6, α7^G175K-GlyR (Homo sapiens, UniProt P36544, G175K).
T6 construct: expressed in transfected cells
Briefly: Agonist potency at chimeric channel. To be noted: for EC50: Table 6, read-out: Potency, a7GlyR G175K. Type of assay: cell-based.

The target of the next assay is T7, α7^W77F,Q79G,G175K-GlyR (Homo sapiens, UniProt P36544, G175K/Q79G/W77F).
T7 construct: expressed in transfected cells
T7 sequence (P36544 with tags, fused parts or gaps W77F/Q79G/G175K): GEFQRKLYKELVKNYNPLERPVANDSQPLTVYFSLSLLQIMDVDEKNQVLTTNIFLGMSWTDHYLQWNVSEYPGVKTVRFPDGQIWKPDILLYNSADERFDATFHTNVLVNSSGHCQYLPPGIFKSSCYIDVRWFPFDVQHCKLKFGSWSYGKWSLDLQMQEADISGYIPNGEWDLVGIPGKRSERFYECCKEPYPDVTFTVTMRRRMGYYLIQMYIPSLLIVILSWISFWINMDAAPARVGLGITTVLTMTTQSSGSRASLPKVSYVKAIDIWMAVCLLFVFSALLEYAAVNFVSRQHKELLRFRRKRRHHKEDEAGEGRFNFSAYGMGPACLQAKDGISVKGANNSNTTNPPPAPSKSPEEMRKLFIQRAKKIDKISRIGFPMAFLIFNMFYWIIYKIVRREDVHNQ
Briefly: Agonist potency at chimeric channel. Format: cell-based. To be noted: Table 6; read-out: Potency, a7GlyR W77F Q79G G175K.

Assay [1] concerns the target T8, α7GlyR Q79G G175K Y115F R27D E41R (Homo sapiens, UniProt P36544, E41R/G175K/Q79G/R27D/Y115F).
T8 construct: expressed in transfected cells
Briefly: Agonist potency at chimeric channel. Format: cell-based. Conditions: Table 6; read-out: Potency, a7GlyR Q79G G175K Y115F R27D E41R.

The next assay deals with T9, α7^Q79G,G175K-GlyR (Homo sapiens, UniProt P36544, G175K/Q79G).
T9 construct: expressed in transfected cells
T9 sequence (P36544 with tags, fused parts or gaps Q79G/G175K): as the sequence (P36544 with tags, fused parts or gaps W77F/Q79G/G175K) above, with F55W counted along it
Briefly: Agonist potency at chimeric channel. Type of assay: cell-based. Conditions: Table 6; read-out: Potency, a7GlyR Q79G G175K.

For assay [2], the system named is α7GlyR chimeric channels with G175K and A298G mutations. Type of assay: cell-based, human.
The next assay deals with T10, α7-GlyR^A298G (Homo sapiens, UniProt P36544, A298G).
T10 construct: expressed in transfected cells; host or cells: HEK cells
T10 sequence (P36544 with tags, fused parts or gaps, stated change not applied): as the sequence (P36544 with tags, fused parts or gaps W77F/Q79G/G175K) above, with F55W, G57Q, K153G, A276G counted along it
Briefly: Agonist potency (EC50), HEK cells expressing chimeric channel. Conditions: HEK cells; Table 2; read-out: Mean EC50 and SEM in parentheses, α7-GlyR^A298G. Type of assay: cell-based.

The target in a further assay is T11, α7^Q79S-5HT3 (Homo sapiens, UniProt P36544, M226I/Q79S/T225I).
T11 construct: expressed in transfected cells; host or cells: HEK cells
T11 sequence (P36544 with tags, fused parts or gaps Q79S/T225I/M226I): as the sequence (P36544 with tags, fused parts or gaps T225I/M226I) above, with Q57S counted along it
The assay is described as above. Format: cell-based, human α7 nAChR LBD, murine 5HT3 IPD. To be noted: HEK cells; Table 1; read-out: Mean EC50, α7^Q79S-5HT3.

The target of the next assay is T12, α7^Q79G-GlyR (Homo sapiens, UniProt P36544, Q79G).
T12 construct: expressed in transfected cells; host or cells: HEK cells
T12 sequence (P36544 with tags, fused parts or gaps Q79G): as the sequence (P36544 with tags, fused parts or gaps W77F/Q79G/G175K) above, with F55W, K153G counted along it
Described as above. Type of assay: cell-based. To be noted: HEK cells; Table 2; read-out: Mean EC50 and SEM in parentheses, α7^Q79G-GlyR.

For another assay, the target named is T13, α7^Q79A-GlyR (Homo sapiens, UniProt P36544, Q79A).
T13 construct: expressed in transfected cells; host or cells: HEK cells
T13 sequence (P36544 with tags, fused parts or gaps Q79A): as the sequence (P36544 with tags, fused parts or gaps W77F/Q79G/G175K) above, with F55W, G57A, K153G counted along it
The description is as above. Format: cell-based. Conditions: HEK cells; Table 2; read-out: Mean EC50 and SEM in parentheses, α7^Q79A-GlyR.

The target in the next assay is T14, α7^Q79G-5HT3 (Homo sapiens, UniProt P36544, M226I/Q79G/T225I).
T14 construct: expressed in transfected cells; host or cells: HEK cells
T14 sequence (P36544 with tags, fused parts or gaps Q79G/T225I/M226I): as the sequence (P36544 with tags, fused parts or gaps T225I/M226I) above, with Q57G counted along it
The description is as above. Format: cell-based, human α7 nAChR LBD, murine 5HT3 IPD. To be noted: HEK cells; Table 1; read-out: Mean EC50, α7^Q79G-5HT3.

For a further assay, the target named is T15, α7^Q79A-5HT3 (Homo sapiens, UniProt P36544, M226I/Q79A/T225I).
T15 construct: expressed in transfected cells; host or cells: HEK cells
T15 sequence (P36544 with tags, fused parts or gaps Q79A/T225I/M226I): as the sequence (P36544 with tags, fused parts or gaps T225I/M226I) above, with Q57A counted along it
Described as above. To be noted: HEK cells; Table 1; read-out: Mean EC50, α7^Q79A-5HT3. Type of assay: cell-based, human α7 nAChR LBD, murine 5HT3 IPD.

The mark [3] stands for this setting: HEK cells, Table 3, read-out: α7^Q79G-GlyR^A298G EC50.
Where [4] appears, read: HEK cells, Table 3, read-out: α7-5HT3 EC50.
Where [5] appears, read: HEK cells, Table 3, read-out: α7-GlyR EC50.
Where [6] appears, read: Table 6, read-out: Potency, a7-5HT3.

Where two headings read alike, the source gives them in different places.

T4 sequence (P36544 with tags, fused parts or gaps Y115F/G175K): as the sequence (P36544 with tags, fused parts or gaps W77F/Q79G/G175K) above, with F55W, G57Q, Y93F counted along it
T8 sequence (P36544 with tags, fused parts or gaps R27D/E41R/Q79G/Y115F/G175K): as the sequence (P36544 with tags, fused parts or gaps W77F/Q79G/G175K) above, with R5D, E19R, F55W, Y93F counted along it
T5 sequence (P36544 with tags, fused parts or gaps Q79G/Y115F/G175K): as the sequence (P36544 with tags, fused parts or gaps W77F/Q79G/G175K) above, with F55W, Y93F counted along it
T6 sequence (P36544 with tags, fused parts or gaps G175K): as the sequence (P36544 with tags, fused parts or gaps W77F/Q79G/G175K) above, with F55W, G57Q counted along it
T1 sequence (P36544 with tags, fused parts or gaps Q79G): as the sequence (P36544 with tags, fused parts or gaps W77F/Q79G/G175K) above, with F55W, K153G, A276G counted along it
T3 sequence (P36544 with tags, fused parts or gaps): as the sequence (P36544 with tags, fused parts or gaps W77F/Q79G/G175K) above, with F55W, G57Q, K153G counted along it

In the case of `COc1ccc(OC)c(C(=O)NC2C3CCN(CC3)C2Cc2cccnc2)c1` (mixture of isomers) [Compound 0434], the EC50 on α7^Q79G-GlyR^A298G (setting [3]) is 190 nM; at α7-5HT3 (setting [4]) it was > 10000 nM; on α7-GlyR (setting [5]), > 10000 nM.

Regarding `O=C(NC1C2CCN(CC2)C1Cc1cccnc1)c1ccc(C(F)(F)F)cc1` (mixture of isomers) [Compound 0436], the EC50 came to 6 nM on α7^Q79G-GlyR^A298G (setting [3]), 840 nM on α7-5HT3 (setting [4]) and 310 nM at α7-GlyR (setting [5]).

Turning to `CC(=O)OCC[N+](C)(C)C` [Acetylcholine], in the assay with α7^L131G-5HT3 HC, the “reduced ACh responsiveness” value stood at 5 fold.

For the compound `O=C(NC1CN2CCC1CC2)c1ccc(C(F)(F)F)cn1` (centres unmarked) [Compound 0295], the figures for the EC50 at α7^Q79G-GlyR^A298G (setting [3]), at α7-5HT3 (setting [4]) and at α7-GlyR (setting [5]) were 4600 nM, > 100000 nM and > 100000 nM, respectively.

With `O=C(NC1CN2CCC1CC2)c1ccc(C(F)(F)F)nc1` (centres unmarked) [Compound 0296], the EC50 was 450 nM at α7^Q79G-GlyR^A298G (setting [3]) and > 100000 nM at α7-5HT3 (setting [4]).

Turning to `O=C(Nc1ccccc1)NC1CN2CCC1CC2` (centres unmarked) [Compound 0353], the EC50 stood at 10 nM at α7^Q79G-GlyR^A298G (setting [3]), 650 nM at α7-5HT3 (setting [4]) and 270 nM on α7-GlyR (setting [5]).

Take `S=C(Nc1ccc(Cl)cc1)NC1CN2CCC1CC2` (centres unmarked) [Compound 0354]: the EC50 on α7^Q79G-GlyR^A298G (setting [3]) came out at 30 nM; on α7-5HT3 (read-out: α7-5HT3 EC50, HEK cells, Table 3), 1400 nM; on α7-GlyR, 1000 nM. In addition, the “partial agonist activity, α7-5HT3” value on α7-5HT3 (HEK cells, Table 3) is reported as “partial”.

Consider `CN1[C@@H]2CCC[C@H]1C[C@@H](NC(=S)c1ccc(Cl)cc1)C2` [Compound 0536], for which the EC50 was 9100 nM on α7^Q79G-GlyR^A298G, > 33000 nM on α7-5HT3 (setting [4]) and > 100000 nM at α7-GlyR (setting [5]).

`CN1C2CCC1CC(NC(=S)c1c[nH]c3ccccc13)C2` (centres unmarked) [Compound 0542]: the EC50 on α7^Q79G-GlyR^A298G (setting [3]) came out at 72 nM; on α7-5HT3 (setting [4]), 3800 nM.

As to `CN1C2CCC1CC(NC(=S)c1cn(C)c3ccccc13)C2` (centres unmarked) [Compound 622], the EC50 on α7^Y115F,G175K-GlyR was 2500 nM; at α7^Q79G,Y115F,G175K-GlyR it was 930 nM; at α7^G175K-GlyR, 870 nM; at α7-5HT3 (setting [6]), > 100000 nM; at α7^W77F,Q79G,G175K-GlyR it was 1700 nM.

Consider `O=C(NC1CN2CCC1CC2)c1c[nH]c2ccccc12` (centres unmarked) [Compound 0676], for which the EC50 on α7^Q79G-GlyR^A298G (setting [3]) turned out to be 2 nM; at α7-5HT3 (setting [4]), 30 nM.

`FC(F)(F)Oc1ccc(NC(=S)N[C@H]2CN3CCC2CC3)cc1` [Compound 684]: the EC50 in assay [1] was 400 nM; at α7^Q79G,Y115F,G175K-GlyR it was 790 nM; at α7^G175K-GlyR it was 230 nM; on α7-5HT3 (setting [6]), > 100000 nM; on α7^Q79G,G175K-GlyR it was 78 nM.

For the compound `Fc1c(Cl)cccc1NC(=S)N[C@H]1CN2CCC1CC2` [Compound 701], on α7-5HT3 (setting [6]), the EC50 is > 100000 nM.

`Fc1ccc(NC(=S)N[C@H]2CN3CCC2CC3)cc1Cl` [Compound 702]: the EC50 on α7-5HT3 (setting [6]) was > 100000 nM.

For `Fc1ccc(Cl)cc1NC(=S)N[C@H]1CN2CCC1CC2` [Compound 703], the EC50 at α7-5HT3 (setting [6]) is > 100000 nM.

Turning to `Cc1ccc(Cl)cc1NC(=S)N[C@H]1CN2CCC1CC2` [Compound 705], the EC50 at α7^Y115F,G175K-GlyR is > 10000 nM; at α7-5HT3 (setting [6]), > 100000 nM.

On to `FC(F)(F)Oc1ccc(NC(=S)N[C@@H]2CN3CCC2CC3)cc1` [Compound 713], for which the EC50 is > 10000 nM on α7^Y115F,G175K-GlyR; > 10000 nM in [1]; 23900 nM on α7^Q79G,Y115F,G175K-GlyR; 2100 nM at α7^G175K-GlyR; > 100000 nM on α7-5HT3 (setting [6]); 540 nM on α7^Q79G,G175K-GlyR.

Take `COc1ccc2[nH]cc(C(=O)O[C@H]3C[C@H]4CC[C@@H](C3)N4C)c2c1` [Compound 736]: the EC50 came to 570 nM on α7^Y115F,G175K-GlyR; 78 nM in assay [1]; 78 nM on α7^Q79G,Y115F,G175K-GlyR; 830 nM at α7-5HT3 (setting [6]); 44 nM at α7^Q79G,G175K-GlyR; 60 nM on α7^W77F,Q79G,G175K-GlyR.

For the compound `CN1C2CCCC1CC(NC(=O)c1nn(C)c3ccccc13)C2` (centres unmarked) [Granisetron], the “activation of α7-5HT3” value on α7-5HT3 is given as “does not activate”. Also, the “activation of α7-GlyR” value on α7-GlyR is given as “does not activate”.

For the compound `c1ccc2c(c1)Sc1ccccc1N2CC1CN2CCC1CC2` (centres unmarked) [Mequitazine], the EC50 on α7^Q79G,Y115F,G175K-GlyR was > 10000 nM; on α7-5HT3 (setting [6]), > 30000 nM; on α7^W77F,Q79G,G175K-GlyR it was 150 nM.

For `CN1CCCC1c1cccnc1` (centres unmarked) [Nicotine], the EC50 in [2] (read-out: Agonist potency; α7GlyR Q79G A298G G175K Y115F) stood at 3300 nM; in [2] (read-out: Agonist potency; α7GlyR Q79G A298G P2161) it was 1600 nM; in assay [2] (read-out: Agonist potency; α7GlyR Q79G A298G Y115F K395 K396A), 16500 nM; in assay [2] (read-out: Agonist potency; α7GlyR Q79G G175K A298G), 110 nM; in assay [2] (read-out: Agonist potency; α7GlyR Q79G W77F A298G), 3800 nM. For the same compound, the “potency enhancement over α7-GlyR” value at α7^G175K-GlyR is listed as 10 fold.

As to `O=C(O[C@H]1C[C@H]2CC[C@@H](C1)N2)c1c[nH]c2ccccc12` [Nortropisetron], the figures for the EC50 in assay [2] (α7GlyR Q79G A298G G175K Y115F; read-out: Agonist potency) and in [2] (α7GlyR Q79G A298G Y115F K395 K396A; read-out: Agonist potency) were 8.4 nM and 6.3 nM, respectively.

For the compound `CN(C)CCCN1c2ccccc2Sc2ccccc21` [Promazine], the EC50 on α7^Q79G,Y115F,G175K-GlyR and on α7-5HT3 (setting [6]) was > 100000 nM each time.

In the case of `Cn1cc(C(=O)C(=O)NC2CN3CCC2CC3)c2ccccc21` (centres unmarked) [RS56812], the EC50 at α7-GlyR^A298G worked out at 2300 nM; on α7^Q79S-5HT3 it was 5700 nM; at α7^Q79G-GlyR^A298G (HEK cells, Table 2, read-out: Mean EC50 and SEM in parentheses, α7^Q79G-GlyR^A298G), 610 nM; on α7^Q79G-GlyR, 2000 nM; on α7^Q79A-GlyR, 3500 nM; at α7^Q79G-5HT3, 1400 nM. For the same compound, the EC50 at α7^Q79A-5HT3 was 6800 nM; on α7-5HT3 (HEK cells, Table 1, read-out: Mean EC50, α7-5HT3), 10000 nM; at α7-GlyR (HEK cells, Table 2, read-out: Mean EC50 and SEM in parentheses, α7 GlyR) it was 6500 nM.
